Results on four molecules are retold here after patent publication US20230110065A1, “COMBINATION OF ANETHOLE TRITHIONE OR ITS DERIVATIVE, 4-OH-ANETHOLE TRITHIONE, WITH DOXYCYCLINE OR MINOCYCLINE FOR THE USE THEREOF IN THE TREATMENT OF PARKINSON'S DISEASE” (priority 2020, published 2023).

“Also recorded” adds a separate entry of the source.

One may read the inhibition as the change of the read-out against control, counted positive when it falls.

For one data set, the system named is Parkinson's disease. The experiment in a line: Clinical case: person with Parkinson's disease. It counts as in vivo, human. The procedure:
This therapeutic solution was tested on a person with Parkinson’s disease. A history of events over 3 years (current follow-up) is presented below:
Symptoms: At the very beginning of 2018, the first manifestations of Parkinson’s appeared: tremors in the left hand, slowing of walking pace, chaotic descent of stairs, tilting of the torso forward accompanied by back pain in the form of muscle contractures, as well as the beginnings of various obvious non-motor disorders (withdrawal, indifference, difficult decision-making, loss of joy in life, depression, etc.), constipation, hyposmia. Initially, ATT was tested as monotherapy.
Treatment: The problem then arose of deciding which dose to use. The patient was already taking ATT to treat a problem of benign prostatic hypertrophy (cf. patent WO2019/O73173) and used it with the greatest satisfaction at a dose of 3 cp to 25 mg, given in the morning and evening, but the dose turned out to be insufficient for treating Parkinson’s disease. A blood-brain barrier crossing problem was suspected and the decision was taken to increase this dose by 4 times by dividing it into 4 daily doses, i.e., 4 x 6 tablets/day (equivalent to 600 mg/day), so as to reduce concentration fluctuations as much as possible (the plasma half-life of ATT in humans is approximately 3 hrs).
Symptoms: In April-May 2019, unusual fatigue manifested when the patient performed strenuous tasks.
Treatment: Faced with worsening fatigue, the decision was taken, on Dec. 19, 2019, to add doxycycline at a dose of 50 mg every 6 hrs, which dose was intended to ensure stable concentrations in the LCR of approximately 0.9 µM/L (Dotevall, 1989; Karlsson, 1996), i.e., around 3 times what Gonzalez-Lizzaraga (2017) recommends.

The conditions of data set [1]: cited from earlier work.
The test system of data set [2] is dopaminergic neurons in midbrain cultures. The data set is described as follows: Survival of dopaminergic (TH+) neurons in midbrain cultures under low-noise, spontaneous oxidative stress. Type of data set: cell-based, mouse. Particulars: 7 days, FIG. 8. The procedure: Midbrain cultures and immunodetection of tyrosine hydroxylase (TH): Mouse midbrain cultures were produced based on a protocol initially described by Troadec and colleagues (2001) and subsequently taken up by Rousseau and colleagues (2013). The cultures were generated from Swiss mouse embryos (Janvier LABS, Le Genest-St Isles) taken from the pregnant mother on day 13.5 of gestation. The cells dissociated from the midbrain were cultured in 48-well plates containing 500 µl of DMEM/HamF12 medium, supplemented with 10% fetal bovine serum (Biowest LLC, Les Ulis, France). Approximately 80-100 10^3 cells were added initially to each culture well. After one hour, the initial medium was replaced with the DMEM/HamF12 medium supplemented with 20 µg/mL of insulin. The culture medium (350 µl) and the treatments were renewed on days 1 and 3 in vitro. The cultures were maintained for a total of 7 days before binding and analysis. […] TH^+ neurons were counted according to a protocol described previously (Rousseau et al, 2013). The counts are expressed as % of the values obtained in the control cultures treated with apotransferrin.
Statistical analysis: The experimental data correspond to mean ± SEM values. […] The data were analyzed with the GraphPad Prism 8.3.1 software or Sigmaplot 12.5 software using One-Way ANOVA, followed by a post-hoc Student Newman Keuls test.

The conditions of data set [3]: in humans; cited from earlier work.
For data set [4], the target named is T1, a-synuclein (Homo sapiens, UniProt P37840).
T1 construct: made in house; host or cells: Escherichia coli (plasmid pT7-7)
The data set is described as follows: Amyloid aggregation of a-synuclein by orbital shaking, Thioflavin-T test. It counts as biochemical. Particulars: ATX 1, 10 or 100 µM, 600 rpm, 37° C., 96 h; FIG. 5B. The procedure: Preparation of a-synuclein: Human recombinant a-synuclein was produced from a strain of Escherichia coli carrying a plasmid pT7-7 containing the coding sequence of the protein (Kaylor et al, J Mol Biol, 2005; Gonzalez-Lizarraga et al, Sci Rep, 2020). After a purification step, the purity of the protein was evaluated by polyacrylamide gel electrophoresis under denaturing conditions (SDS-PAGE). The stock solution of a-synuclein was prepared in a buffer containing 20 mM of HEPES and 150 mM of NaCl at pH 7.4. Before initiating the aggregation protocol, the protein was centrifuged at 12000 g for 30 minutes in order to eliminate the micro-aggregates. The protein concentration was measured at 280 nm with a Nanodrop 8000 spectrophotometer (Gonzalez-Lizarraga et al, Sci Rep, 2020).
Aggregation of a-synuclein […]: The aggregation protocol was adapted from previous work (Kaylor et al, J Mol Biol, 2005; Gonzalez-Lizarraga et al, Sci Rep, 2020). Briefly, the aggregation of a-synuclein was obtained by orbital shaking (600 rpm; Thermomixer Comfort; Eppendorf), at 37° C. for 96 h, of the recombinant protein (70 µM) solubilized in 20 mM of HEPES and 150 mM of NaCl, pH 7.4. Dimethylformamide (DMF) was used to dilute ATX in this experimental protocol. The formation of aggregated structures was monitored by means of the Thioflavin-T (ThT) test (LeVine et al, Meth Enzymol, 1999).

Data set [5] concerns the target T1, a-synuclein. The experiment in a line: Transmission electron microscopy of a-synuclein aggregates. It counts as biochemical. The conditions noted are these: ATX 10 µM. The protocol: Transmission electron microscopy: The a-synuclein samples, shaken in the optional presence of the treatments of interest, were characterized by transmission electron microscopy. Aliquots of 50 µl of each solution were used for this analysis. The sample preparation protocol is described in detail by Gonzalez-Lizarraga and colleagues (2020). Images were obtained with a transmission electron microscope, Philips EM 301.

Data set [6] concerns microglia in culture activated by PAM3CSK4 (TLR2 agonist). The experiment in a line: TNF-a release (ELISA) in microglia in culture activated by PAM3CSK4. It counts as cell-based, mouse. Particulars: PAM3CSK4 1 µg/mL, 24 hrs; FIG. 4. The text has this: Purification of microglia: The cultures were produced from a cell suspension obtained by mechanical dissociation of the brains of newborn mice, C57BL/6J (Janvier LABS), according to a protocol described by Sepulveda-Diaz and colleagues (Glia, 2016) and modified subsequently by dos-Santos-Pereira and colleagues (Glia, 2020). The protocol used follows the directives of the Council of the European Union (2010/63/EU). It was approved by the Ethics Committee for Animal Experimentation, Charles Darwin no. 5. […]
(§1) Assessment of TNF-a levels: The culture medium of the microglia, recovered 24 hrs after the stimulation by the inflammogens was initiated, was then frozen at -20° C. until the analysis. TNF-a was detected with an ELISA kit from ThermoFisher (BMS607-3TWO), following the supplier’s instructions (dos-Santos-Pereira et al, Glia, 2020). The absorbance of each sample was measured at 450 nm with a SpectraMax i3X.
(§2) Statistical analysis: The experimental data were analyzed with the GraphPad Prism 8.3.1 software by applying a One-Way ANOVA test, followed by a post-hoc Student Newman Keuls test.

Data set [7] relates to microglia in culture activated by LPS (TLR4 agonist). The data set is described as follows: TNF-a release (ELISA) in microglia in culture activated by LPS. Type of data set: cell-based, mouse.
Excerpt: Purification of microglia: The cultures were produced from a cell suspension obtained by mechanical dissociation of the brains of newborn mice, C57BL/6J (Janvier LABS), according to a protocol described by Sepulveda-Diaz and colleagues (Glia, 2016) and modified subsequently by dos-Santos-Pereira and colleagues (Glia, 2020). The protocol used follows the directives of the Council of the European Union (2010/63/EU). It was approved by the Ethics Committee for Animal Experimentation, Charles Darwin no. 5. Corning culture flasks of 75 cm^2 precoated with a polycation, polyethyleneimine (PEI; 1 mg/mL) diluted in a borate buffer pH 8.3, were used so as to obtain spontaneous isolation of the microglial cells after 15-20 days of culture, this isolation taking place at the expense of other cell populations, in particular, astrocytes. In order to maintain the flask cultures, Dulbecco’s modified Eagle’s medium (DMEM) supplemented with 10% fetal bovine serum (FBS, Biowest LLC) and 1% penicillin/streptomycin cocktail was used (see experimental details described in the publication of Sepulveda-Diaz and colleagues). After the microglia purification step, the microglia adhering in the culture flasks were trypsinized to produce subcultures in 48-well multi-well Nunc plates. These cultures were maintained in the presence of DMEM, supplemented with 20 mM HEPES and 1% FBS. […]
as §1, §2
In general terms: In an ELISA, binding on a coated surface is turned into a signal by an enzyme label.

The conditions of data set [8]: doxycycline 50 mg every 6 hrs; intended, from Dotevall, 1989; Karlsson, 1996; cited from earlier work.

As for `COc1ccc(-c2cc(=S)ss2)cc1` [ATT, anethole trithione], in the data set with Parkinson's disease (ATT 150 mg, 4 times a day), the “Duration of satisfactory treatment” value is 13 months. Besides, in the data set with Parkinson's disease (ATT 150 mg, 4 times a day, after the satisfactory period), the “Duration of failure with the onset of new symptoms” value worked out at 7 months. Further, the Side effects entry in the data set on Parkinson's disease (two years of treatment) was “no significant side effects have been noted during these two years of treatment, apart from intestinal meteorism”. In addition, in [1] (He 2011, Li TM 2007, Li WY 2008), the “Metabolization of ATT” value is “metabolizes almost immediately and completely into ATX via O-demethylation”. In data set [1] (over a 24-hour period), the “ATT found in the patient's urine” value is on record as “almost no ATT can be found”. The “Protection as % of that of APO (apotransferrin)” value in [2] (0.75 µM) is given as 0.6%. Moreover, the Plasma half-life entry in data set [3] is on record as “approximately 3 hrs”.
As to `Oc1ccc(-c2cc(=S)ss2)cc1` [ATX, 4-hydroxy-anethole trithione], on a-synuclein [4], the “Inhibition of a-synuclein aggregation (ThT fluorescence), result in words” value was “effective, even at a low concentration; also recorded: effectively and concentration-dependently inhibiting the aggregation”. At a-synuclein [5], the “Amyloid aggregation of a-synuclein seen by TEM” value is “effectively reduces the amyloid aggregation of a-synuclein”. The “Release of TNF-a (inflammation marker), result in words” value is “capable of inhibiting the release of TNF-a” in [6] and “capable of inhibiting the release of TNF-a” in data set [7] (LPS 10 ng/mL, 24 hrs, FIG. 3).
With `C[C@H]1c2cccc(O)c2C(=O)C2=C(O)[C@]3(O)C(=O)C(C(N)=O)=C(O)[C@@H](N(C)C)[C@@H]3[C@@H](O)[C@@H]21` [DOX, doxycycline], the “Stable concentrations in the LCR” value in data set [8] is “approximately 0.9 µM/L”. Moreover, the inhibition at 50 µM in data set [7] (Mus musculus, Microglia, LPS model, 50 µM of DOX, read-out: Inhibition of the release of TNFa) came to 50%. Moreover, the inhibition at 100 µM in [7] (Mus musculus, Microglia, LPS model, 100 µM of DOX, read-out: Inhibition of the release of TNFa) is about 70%. Besides, the “Protective effect as % of that of apotransferrin” value in data set [2] (DOX 7.5 µM) was 27%.
Regarding `N[C@@H](Cc1ccc(O)c(O)c1)C(=O)O` [L-DOPA], in the data set on Parkinson's disease (July 2019, patient on ATT 600 mg/day), the “Effect of introducing SINEMET (L-DOPA) on symptoms” value is “solved the problem of loss of balance but the hand tremors only slightly improved and fatigue persisted”.
